Measurements published in patent US5567692A, “9-[(substituted glycyl) amido)]-6-demethyl-6-deoxytetracyclines” (priority 1995, dated 1996).
Values after ≈ are worked out from the molar mass of the structure shown. Structures can show the parent of a compound that is named as a salt. Where two headings read alike, the source gives them in different places.

How the values were obtained:
Assay type in all cases: cell-based
[1] = test system: Ps. aeruginosa ATCC 27853; test: MIC, agar dilution; details: Pseudomonas aeruginosa, ATCC27853, 18 h
S. aureus UBMS 90-3 = test: MIC, agar dilution; details: Staphylococcus aureus, UBMS903, 18 h
E. coli UBMS 88-1 Tet B = test: microbe, parasite or virus in culture; details: Escherichia coli, UBMS881TETB, 18 h
S. aureus ATCC 29213 = test: MIC, agar dilution; details: Staphylococcus aureus, ATCC29213, 18 h, S. aureus ATCC 29213
S. aureus NEMC 8769 = test: MIC, agar dilution; details: Staphylococcus aureus, NEMC8769, 18 h
Enterococcus 12201 = test: MIC, agar dilution; details: Enterococcus, 12201, 18 h
S. aureus ROSE (MP) = test: MIC, agar dilution; details: Staphylococcus aureus, 18 h
E. coli J2175 = test: MIC, agar dilution; details: Escherichia coli, 18 h, read-out: MIC
E. coli #311 (MP) = test: MIC, agar dilution; details: Escherichia coli, 18 h
[2] = test system: S. aureus UBMS 90-1 Tet M; test: microbe, parasite or virus in culture; details: Staphylococcus aureus, UBMS901TETM, 18 h
[3] = test system: E. coli MC 4100 TNIOC Tet B; test: microbe, parasite or virus in culture; details: Escherichia coli, 18 h
E. coli PRP1 Tet A = test: microbe, parasite or virus in culture; details: Escherichia coli, PRP1TETA, 18 h
E. coli BAJ9003 IMP MUT = test: microbe, parasite or virus in culture; details: Escherichia coli, BAJ9003IMPMUT, 18 h
E. coli J3272 Tet D = test: microbe, parasite or virus in culture; details: Escherichia coli, J3272TETD, 18 h
[4] = test system: S. aureus UBMS 88-7 Tet K; test: microbe, parasite or virus in culture; details: Staphylococcus aureus, UBMS887TETK, 18 h
E. coli UBMS 90-5 = test: microbe, parasite or virus in culture; details: Escherichia coli, UBMS905, 18 h, E. coli UBMS 90-5; read-out: MIC
E. coli UBMS 89-1 Tet M = test: microbe, parasite or virus in culture; details: Escherichia coli, UBMS891TETM, 18 h
E. faecalis ATCC 29212 = test: MIC, agar dilution; details: Enterococcus faecalis, ATCC29212, 18 h, E. faecalis ATCC 29212; read-out: MIC
S. marcescens FPOR 8733 = test: MIC, agar dilution; details: Serratia marcescens, FPOR8733, 18 h
[5] = test system: E. coli MC 4100 Tet sens.; test: MIC, agar dilution; details: Escherichia coli, 18 h
S. aureus SMITH (MP) = test: MIC, agar dilution; details: Staphylococcus aureus, 18 h
S. aureus IVES 1983 = test: MIC, agar dilution; details: Staphylococcus aureus, IVES1983, 18 h
E. coli UBMS 90-4 Tet M = test: microbe, parasite or virus in culture; details: Escherichia coli, UBMS904TETM, 18 h
E. coli J3272 Tet C = test: microbe, parasite or virus in culture; details: Escherichia coli, J3272TETC, 18 h
[6] = test system: S. aureus UBMS 88-5 Tet M; test: microbe, parasite or virus in culture; details: Staphylococcus aureus, UBMS885TETM, 18 h
S. aureus UBMS 88-4 = test: MIC, agar dilution; details: Staphylococcus aureus, UBMS884, 18 h
[7] = test system: S. hemolyticus AVHAH 88-3; test: MIC, agar dilution; details: Streptococcus pyogenes, AVHAH883, 18 h
E. coli ATCC 25922 = test: MIC, agar dilution; details: Escherichia coli, ATCC25922, 18 h
[8] = test system: E. coli UBMS 89-2 Tet sens.; test: MIC, agar dilution; details: Escherichia coli, 18 h
S. aureus IVES 2943 = test: MIC, agar dilution; details: Staphylococcus aureus, IVES2943, 18 h
[9] = test system: S. aureus UBMS 90-2 Tet M; test: microbe, parasite or virus in culture; details: Staphylococcus aureus, UBMS902TETM, 18 h
[10] = test system: X. maltophilia NEMC 87210; test: MIC, agar dilution; details: Stenotrophomonas maltophilia, NEMC87210, 18 h
[11] = Ps. aeruginosa ATCC 27853, read-out: MIC

Compound | MIC (E. coli UBMS 88-1 Tet B) | MIC (E. coli J2175) | MIC (E. coli #311 (MP)) | MIC [2] | MIC [3] | MIC (E. coli PRP1 Tet A) | MIC (E. coli BAJ9003 IMP MUT) | MIC (E. coli J3272 Tet D) | MIC [4] | MIC (E. coli UBMS 90-5) | MIC (E. coli UBMS 89-1 Tet M) | MIC (E. faecalis ATCC 29212) | MIC (S. marcescens FPOR 8733) | MIC [5] | MIC (S. aureus IVES 1983) | MIC (E. coli UBMS 90-4 Tet M) | MIC (E. coli J3272 Tet C) | MIC [6] | MIC (S. aureus UBMS 88-4) | MIC (E. coli ATCC 25922) | further results
CN(C)[C@@H]1C(O)=C(C(N)=O)C(=O)[C@@]2(O)C(O)=C3C(=O)c4c(ccc(NC(=O)CN5CCCCC5)c4O)CC3CC12 (stereo partly drawn) [I, [7S-(7alpha,10aalpha)]-N-9-(Aminocarbonyl)-7-(dimethylamino)-5,5a,6,6a,7,10,10a,12-octahydro-1,8,10a,11-tetrahydroxy-10,12-dioxo-1-piperidineacetamide dihydrochloride] | 1 µg/mL | 0.5 µg/mL | 0.5 µg/mL | 0.5 µg/mL | 1 µg/mL | 1 µg/mL | 0.12 µg/mL | 0.5 µg/mL | 0.5 µg/mL | 0.5 µg/mL | 0.25 µg/mL | 0.25 µg/mL | 8 µg/mL | 0.25 µg/mL | 1 µg/mL | 0.5 µg/mL | 1 µg/mL | 0.5 µg/mL | 0.5 µg/mL | 0.5 µg/mL | MIC [1, 11]: > 32 µg/mL; MIC (S. aureus UBMS 90-3): 0.25 µg/mL; MIC (S. aureus ATCC 29213; read-out: MIC): 0.5 µg/mL; MIC (S. aureus NEMC 8769; read-out: MIC): 0.5 µg/mL; MIC (Enterococcus 12201): 0.25 µg/mL; MIC (S. aureus ROSE (MP); read-out: MIC): 4 µg/mL; MIC (S. aureus SMITH (MP)): 0.25 µg/mL; MIC ([7]; S. hemolyticus AVHAH 88-3, read-out: MIC): 2 µg/mL; MIC [8]: 0.5 µg/mL; MIC (S. aureus IVES 2943): 1 µg/mL; MIC [9]: 0.25 µg/mL; MIC [10]: 0.5 µg/mL
CN(C)[C@@H]1C(O)=C(C(N)=O)C(=O)[C@@]2(O)C(O)=C3C(=O)c4c(ccc(NC(=O)CNCc5ccccn5)c4O)CC3CC12 (stereo partly drawn) [N, [4S-(4alpha,12aalpha)]-4-(Dimethylamino)-1,4,4a,5,5a,6,11,12a-octahydro-3,10,12,12a-tetrahydroxy-1,11-dioxo-9-[[[(2-pyridinylmethyl]amino]acetyl]amino]-2-naphthacenecarboxamide dihydrochloride] | > 32 µg/mL | > 32 µg/mL | 32 µg/mL | 8 µg/mL | 32 µg/mL | 32 µg/mL | 2 µg/mL | 32 µg/mL | > 32 µg/mL | 32 µg/mL | 16 µg/mL | 4 µg/mL | > 32 µg/mL | 8 µg/mL | > 32 µg/mL | 16 µg/mL | > 32 µg/mL | 8 µg/mL | 8 µg/mL | 32 µg/mL | MIC [1]: > 32 µg/mL; MIC (S. aureus UBMS 90-3; S. aureus UBMS 90-3, read-out: MIC): 4 µg/mL; MIC (S. aureus ATCC 29213): 8 µg/mL; MIC (S. aureus NEMC 8769): 8 µg/mL; MIC (Enterococcus 12201): 8 µg/mL; MIC (S. aureus ROSE (MP)): > 32 µg/mL; MIC (S. aureus SMITH (MP); S. aureus SMITH (MP), read-out: MIC): 4 µg/mL; MIC [7]: > 32 µg/mL; MIC [8]: 32 µg/mL; MIC (S. aureus IVES 2943): > 32 µg/mL; MIC [9]: 8 µg/mL; MIC [10]: > 32 µg/mL
CC(C(=O)Nc1ccc2c(c1O)C(=O)C1=C(O)[C@]3(O)C(=O)C(C(N)=O)=C(O)[C@@H](N(C)C)C3CC1C2)N1CCCC1 (stereo partly drawn) [P] | 2 µg/mL (≈ 3.61 µM) | 1 µg/mL (≈ 1.8 µM) | 1 µg/mL (≈ 1.8 µM) | 0.5 µg/mL (≈ 0.902 µM) | 2 µg/mL (≈ 3.61 µM) | 2 µg/mL (≈ 3.61 µM) | 0.25 µg/mL (≈ 0.451 µM) | 0.5 µg/mL (≈ 0.902 µM) | 1 µg/mL (≈ 1.8 µM) | 0.5 µg/mL (≈ 0.902 µM) | 0.5 µg/mL (≈ 0.902 µM) | 0.25 µg/mL (≈ 0.451 µM) | 16 µg/mL (≈ 28.8 µM) | 0.25 µg/mL (≈ 0.451 µM) | 1 µg/mL (≈ 1.8 µM) | 1 µg/mL (≈ 1.8 µM) | 1 µg/mL (≈ 1.8 µM) | 0.5 µg/mL (≈ 0.902 µM) | 0.5 µg/mL (≈ 0.902 µM) | 1 µg/mL (≈ 1.8 µM) | MIC [1, 11]: > 32 µg/mL; MIC (S. aureus UBMS 90-3): 0.25 µg/mL (≈ 0.451 µM); MIC (S. aureus ATCC 29213): 0.5 µg/mL (≈ 0.902 µM); MIC (S. aureus NEMC 8769): 0.5 µg/mL (≈ 0.902 µM); MIC (Enterococcus 12201; Enterococcus 12201, read-out: MIC): 0.25 µg/mL (≈ 0.451 µM); MIC (S. aureus ROSE (MP); read-out: MIC): 8 µg/mL (≈ 14.4 µM); MIC (S. aureus SMITH (MP)): 0.5 µg/mL (≈ 0.902 µM); MIC [7]: 4 µg/mL (≈ 7.21 µM); MIC [8]: 1 µg/mL (≈ 1.8 µM); MIC (S. aureus IVES 2943; S. aureus IVES 2943, read-out: MIC): 2 µg/mL (≈ 3.61 µM); MIC [9]: 0.5 µg/mL (≈ 0.902 µM); MIC [10]: 4 µg/mL (≈ 7.21 µM)
